Data published in article PMC12717099, “Peptidoglycan recruitment by a penicillin binding protein” (Nature Communications, 2025).

Experiments:
Assay type in all cases: cell-based, Enterococcus faecium
[1] = system: E. faecium D344SRF, Wild Type; conditions: strain Wild Type; disks Ampicillin 10 μg, Penicillin 10 U, Ceftriaxone 30 μg; BHI agar, 37 °C, 24 h; n=3
Procedure: (§1) E. faecium strains were streaked fresh from −80 °C stored glycerol stocks onto brain heart infusion (BHI) agar plates and incubated for 18 h at 37 °C. Strains harboring the plasmid derivatives were grown under antibiotic pressure on agar plates containing kanamycin at 1500 µg/ml. A single colony was inoculated into BHI or BHI-kanamycin (1500 µg/ml) for overnight cultures (18 h).
Antibiotic disks used were manufactured by BD BBL^TM. Disk diffusion assays were performed according to the Clinical and Laboratory Standards Institute (CLSI) guidance. Overnight cultures were inoculated into 3 ml of BHI or BHI-kanamycin (1500 µg/ml) broth with a dilution of 1:100 and incubated until an OD600 of ~0.5 was reached. The OD600 was adjusted to 0.01 to get the inoculum suspension. […] The plates were incubated at 37 °C and the zones of inhibition were measured after 24 h. All experiments were conducted in triplicate.

[2] = system: E. faecium D344SRF pCWR624 (PBP5 plasmid); assay: Disk diffusion assay, pCWR624; conditions: strain pCWR624; 37 °C, 24 h; n=3
Procedure: (§2) The synthetic genes were purchased from GeneWiz (South Plainfield, NJ). The ribosome binding site sequence AGGAGG (Shine-Dalgarno), and a string of five A’s followed by the sequence […], that corresponds to the first 15 bp found in pbp5 from E. faecium C68 were added upstream of the START codon. The terminator sequence […] was added downstream of the STOP codon. BamHI restriction sites were added to the flanking 5′ and 3′ ends. The synthetic genes were inserted into the vector pCWR624Δpbp5. This vector was derived from pCWR624[10], in which the pbp5 gene from D366 was excised by digestion with BamHI followed by re-ligation of the vector, allowing subsequent insertion of modified synthetic pbp5s into the BamHI site downstream of ftsWEfm and psr from E. faecium C68[10]. The synthetic genes were inserted in a BamHI site located downstream of psr. The proper orientation was confirmed by PCR amplification using the forward primer OR_pbp5_FOR_1 (5′-[…]-3′) and the reverse primer OR_pbp5_REV_1 (5′-[…]-3′). Plasmids were sequence verified for the specific binding site mutations. The resulting constructions were electroporated into the natural pbp5(-) mutant E. faecium D344SRF with a selection on brain heart infusion agar (BHI) plates containing kanamycin (1500 µg/ml).
as §1
(§3) Antibiotic disks used were manufactured by BD BBL^TM. Disk diffusion assays were performed according to the Clinical and Laboratory Standards Institute (CLSI) guidance. Overnight cultures were inoculated into 3 ml of BHI or BHI-kanamycin (1500 µg/ml) broth with a dilution of 1:100 and incubated until an OD600 of ~0.5 was reached. […] The plates were incubated at 37 °C and the zones of inhibition were measured after 24 h. […]

[3] = system: E. faecium D344SRF pCWR624Δpbp5 (empty plasmid); assay: Disk diffusion assay, pCWR624Δpbp5; conditions: strain pCWR624Δpbp5; 37 °C, 24 h; n=3
Procedure: as §2, §1, §3

[4] = system: E. faecium D344SRF pCWR624Δpbp5_pbp5_V1; assay: Disk diffusion assay, pbp5_V1; conditions: strain pbp5_V1 (N523A); 37 °C, 24 h; n=3
Procedure: as §2, §1, §3

[5] = system: E. faecium D344SRF pCWR624Δpbp5_pbp5_V2; assay: Disk diffusion assay, pbp5_V2; conditions: strain pbp5_V2 (N523A_Q627A); 37 °C, 24 h; n=3
Procedure: as §2, §1, §3

[6] = system: E. faecium D344SRF pCWR624Δpbp5_pbp5_V3; assay: Disk diffusion assay, pbp5_V3; conditions: strain pbp5_V3 (loop 625-631); 37 °C, 24 h; n=3
Procedure: as §2, §1, §3

[7] = system: E. faecium D344SRF pCWR624Δpbp5_pbp5_V4; assay: Disk diffusion assay, pbp5_V4; conditions: strain pbp5_V4 (D530A_L533A_W457A); 37 °C, 24 h; n=3
Procedure: as §2, §1, §3

[8] = system: E. faecium D344SRF pCWR624Δpbp5_pbp5_V5; assay: Disk diffusion assay, pbp5_V5; conditions: strain pbp5_V5 (Q396A_E397A); 37 °C, 24 h; n=3
Procedure: as §2, §1, §3

[9] = system: E. faecium D344SRF pCWR624Δpbp5_pbp5_V6; assay: Disk diffusion assay, pbp5_V6; conditions: strain pbp5_V6 (E284A_E291A_S294A_N295A); 37 °C, 24 h; n=3
Procedure: as §2, §1, §3

[10] = system: E. faecium D344SRF, Wild Type; assay: MIC by broth microdilution, Wild Type; conditions: strain Wild Type; BHI broth microdilution, 37 °C, 20 h, read by eye; n=3
Procedure: as §1
MIC determination was performed using a standard broth microdilution technique in duplicate from independent cultures. Overnight cultures were inoculated into 3 ml of BHI or BHI-kanamycin (1500 µg/ml) broth in a dilution of 1:100 and incubated until an OD600 of ~0.5 was reached. Cultures were diluted 1:1000 and inoculated into the 96-well plates with the corresponding antibiotics to be tested. Plates were incubated at 37 °C for 20 h and read by eye. The MICs were defined as the lowest antibiotic concentration that inhibited growth.

[11] = system: E. faecium D344SRF pCWR624 (PBP5 plasmid); assay: MIC by broth microdilution, pCWR624; conditions: strain pCWR624; 37 °C, 20 h; n=3
Procedure: as §2, §1
(§4) MIC determination was performed using a standard broth microdilution technique in duplicate from independent cultures. Overnight cultures were inoculated into 3 ml of BHI or BHI-kanamycin (1500 µg/ml) broth in a dilution of 1:100 and incubated until an OD600 of ~0.5 was reached. Cultures were diluted 1:1000 and inoculated into the 96-well plates with the corresponding antibiotics to be tested. Plates were incubated at 37 °C for 20 h and read by eye. […]

[12] = system: E. faecium D344SRF pCWR624Δpbp5 (empty plasmid); assay: MIC by broth microdilution, pCWR624Δpbp5; conditions: strain pCWR624Δpbp5; 37 °C, 20 h; n=3
Procedure: as §2, §1, §4

[13] = system: E. faecium D344SRF pCWR624Δpbp5_pbp5_V1; assay: MIC by broth microdilution, pbp5_V1; conditions: strain pbp5_V1 (N523A); 37 °C, 20 h; n=3
Procedure: as §2, §1, §4

[14] = system: E. faecium D344SRF pCWR624Δpbp5_pbp5_V2; assay: MIC by broth microdilution, pbp5_V2; conditions: strain pbp5_V2 (N523A_Q627A); 37 °C, 20 h; n=3
Procedure: as §1

[15] = system: E. faecium D344SRF pCWR624Δpbp5_pbp5_V3; assay: MIC by broth microdilution, pbp5_V3; conditions: strain pbp5_V3 (loop 625-631); 37 °C, 20 h; n=3
Procedure: as §2, §1, §4

[16] = system: E. faecium D344SRF pCWR624Δpbp5_pbp5_V4; assay: MIC by broth microdilution, pbp5_V4; conditions: strain pbp5_V4 (D530A_L533A_W457A); 37 °C, 20 h; n=3
Procedure: as §2, with “The resulting constructions were electroporated into the natural pbp5(-) mutant E. faecium D344SRF with a selection on brain heart infusion agar (BHI) plates containing kanamycin (1500 µg/ml).” left out
MIC determination was performed using a standard broth microdilution technique in duplicate from independent cultures. […] Plates were incubated at 37 °C for 20 h and read by eye. […]

[17] = system: E. faecium D344SRF pCWR624Δpbp5_pbp5_V5; assay: MIC by broth microdilution, pbp5_V5; conditions: strain pbp5_V5 (Q396A_E397A); 37 °C, 20 h; n=3
Procedure: as §2, §1, §4

[18] = system: E. faecium D344SRF pCWR624Δpbp5_pbp5_V6; assay: MIC by broth microdilution, pbp5_V6; conditions: strain pbp5_V6 (E284A_E291A_S294A_N295A); 37 °C, 20 h; n=3
Procedure: as §2, §1, §4

SMILES | Zone Size (mm) [Range] [1] | Zone Size (mm) [Range] [2] | Zone Size (mm) [Range] [3] | Zone Size (mm) [Range] [4] | Zone Size (mm) [Range] [5] | Zone Size (mm) [Range] [6] | Zone Size (mm) [Range] [7] | Zone Size (mm) [Range] [8] | Zone Size (mm) [Range] [9] | MIC (µg/ml) [Range] [10] | MIC (µg/ml) [Range] [11] | MIC (µg/ml) [Range] [12] | MIC (µg/ml) [Range] [13] | MIC (µg/ml) [Range] [14] | MIC (µg/ml) [Range] [15] | MIC (µg/ml) [Range] [16] | MIC (µg/ml) [Range] [17] | MIC (µg/ml) [Range] [18]
CC1(C)S[C@@H]2[C@H](NC(=O)Cc3ccccc3)C(=O)N2[C@H]1C(=O)O [Penicillin, penicillin G] | 28 [28-32] mm | 0 [0] mm | 28 [28-32] mm | 0 [0] mm | 26 [26-28] mm | 32 [30-32] mm | 32 [30-32] mm | 0 [0] mm | 0 [0] mm | 0.39 [0.39-0.78] µg/ml | > 200 [>200] µg/ml | 0.39 [0.39-1.56] µg/ml | 200 [200] µg/ml | 12.5 [12.5-25] µg/ml | 0.39 [0.39] µg/ml | 0.39 [0.39] µg/ml | 200 [200] µg/ml | 200 [200] µg/ml
CC1(C)S[C@@H]2[C@H](NC(=O)[C@H](N)c3ccccc3)C(=O)N2[C@H]1C(=O)O [Ampicillin] | 32 [30-32] mm | 0 [0] mm | 30 [30-32] mm | 16 [14-16] mm | 26 [26-28] mm | 32 [30-32] mm | 32 [32] mm | 0 [0-10] mm | 0 [0-10] mm | 0.39 [0.39-0.78] µg/ml | 100 [100->200] µg/ml | 0.78 [0.39-1.56] µg/ml | 100 [50-100] µg/ml |  | < 0.19 [<0.19-0.39] µg/ml |  | 100 [100] µg/ml | 100 [100] µg/ml
